Source: patent US10597388B2, “Pyridazinone herbicides” (FMC CORPORATION, priority 2014, dated 2020)

What was measured:
Assay type in all cases: in vivo
[1] = tested on: pigweed (Amaranthus retroflexus); assay: Test C greenhouse herbicide test, pre- and postemergence
Source text: (§1) Seeds of plant species selected from blackgrass (Alopecurus myosuroides), ryegrass, Italian (Italian ryegrass, Lolium multiflorum), wheat (winter wheat, Triticum aestivum), galium (catchweed bedstraw, Galium aparine), corn (Zea mays), large crabgrass, large (large crabgrass, Digitaria sanguinalis), foxtail, giant (giant foxtail, Setaria faberii), johnsongrass (Sorghum halepense), lambsquarters (Chenopodium album), morningglory (Ipomoea coccinea), nutsedge, yellow (yellow nutsedge, Cyperus esculentus), pigweed (Amaranthus retroflexus), ragweed (common ragweed, Ambrosia elatior), soybean (Glycine max), barnyardgrass (Echinochloa crus-galli), oilseed rape (Brassica napus), waterhemp (common waterhemp, Amaranthus rudis), and velvetleaf (Abutilon theophrasti) were planted into a blend of loam soil and sand and treated preemergence with test chemicals formulated in a non-phytotoxic solvent mixture which included a surfactant.
(§2) At the same time, plants selected from these crop and weed species and also chickweed (common chickweed, Stellaria media), kochia (Kochia scoparia), and oat, wild (wild oat, Avena fatua), were planted in pots containing Redi-Earth® planting medium (Scotts Company, 14111 Scottslawn Road, Marysville, Ohio 43041) comprising spaghnum peat moss, vermiculite, wetting agent and starter nutrients and treated with postemergence applications of test chemicals formulated in the same manner. Plants ranged in height from 2 to 18 cm (1- to 4-leaf stage) for postemergence treatments. Treated plants and controls were maintained in a greenhouse for 13 to 15 d, after which time all species were compared to controls and visually evaluated. Plant response ratings, summarized in Table C, are based on a scale of 0 to 100 where 0 is no effect and 100 is complete control. A dash (-) response means no test result.

[2] = tested on: ryegrass, Italian (Italian ryegrass, Lolium multiflorum); assay: as above
Source text: as §1, §2

[3] = tested on: corn (Zea mays); assay: as above
Source text: as §1, §2

[4] = tested on: velvetleaf (Abutilon theophrasti); assay: as above
Source text: as §1, §2

[5] = tested on: blackgrass (Alopecurus myosuroides); assay: as above
Source text: as §1, §2

[6] = tested on: morningglory (Ipomoea coccinea); assay: as above
Source text: as §1, §2

[7] = tested on: wheat (Triticum aestivum); assay: Test A greenhouse herbicide test, pre- and postemergence; conditions: Postemergence
Summary of the method: (§3)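 Seeds sown in loam–sand blend got a preemergence directed soil spray of compound in non-phytotoxic solvent with surfactant. Postemergence treatment was given at 2–10 cm, one- to two-leaf stage. After ~10 d in greenhouse, injury was rated visually vs untreated controls, 0 (no effect) to 100 (complete control).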

[8] = tested on: foxtail, giant (giant foxtail, Setaria faberii); assay: as above
Summary of the method: as §3

[9] = tested on: pigweed (Amaranthus retroflexus); assay: as above
Summary of the method: as §3

[10] = tested on: ragweed (common ragweed, Ambrosia elatior); assay: as above
Summary of the method: as §3

[11] = tested on: kochia (Kochia scoparia); assay: as above
Summary of the method: as §3

[12] = Postemergence, 31 g ai/ha, 0 to 100 scale (0 no effect, 100 complete control)
[13] = Postemergence, 125 g ai/ha, scale 0 to 100, 0 is no effect, 100 is complete control
[14] = Postemergence, 250 g ai/ha, scale 0 to 100, 0 no effect, 100 complete control, 13 to 15 d
[15] = Preemergence, 31 g ai/ha, scale 0 to 100, 0 is no effect, 100 is complete control
[16] = Preemergence, 62 g ai/ha, scale 0 to 100, 0 is no effect, 100 is complete control
[17] = Preemergence, 125 g ai/ha, scale 0 to 100, 0 is no effect, 100 is complete control
[18] = Preemergence, 250 g ai/ha, scale 0 to 100, 0 no effect, 100 complete control
[19] = postemergence, 62 g ai/ha, scale 0 to 100, 0 no effect, 100 complete control
[20] = Postemergence, 125 g ai/ha, visual rating after approx. 10 d, 0 to 100 scale (0 no effect, 100 complete control)
[21] = Postemergence, 500 g ai/ha, 0 to 100 scale, 0 is no effect, 100 is complete control
[22] = Preemergence, 125 g ai/ha, 0 to 100 scale where 0 is no effect and 100 is complete control
[23] = Preemergence, 500 g ai/ha, 0 to 100 scale, 0 no effect, 100 complete control

Cc1nn(C)c(=O)c(-c2c(C)sc3ccc(Br)cc23)c1O [Compound 22]
5: Plant response rating, Corn [3, 13] | Plant response rating, Corn [3, 14] | Corn plant response rating [3, 19] | Plant response rating, Blackgrass [5, 15]
0: Corn plant response rating [3, 12] | Plant response rating, Corn [3, 15] | Plant response rating, Corn [3, 16] | Plant response rating, Corn [3, 17] | Blackgrass plant response rating [5, 12] | Blackgrass plant response rating [5, 19] | Plant response rating, Wheat ([7]; 125 g ai/ha, visual rating after approx. 10 d, 0 to 100 scale (0 no effect, 100 complete control)) | Wheat plant response rating ([7]; 500 g ai/ha, 0 to 100 scale, 0 is no effect, 100 is complete control)
70: Ryegrass, Italian plant response rating [2, 19] | Foxtail, Giant plant response rating [8, 22] | Kochia plant response rating [11, 22]
98: Plant response rating, Pigweed [1, 14] | Velvetleaf plant response rating [4, 18]
50: Velvetleaf plant response rating [4, 19]
45: Blackgrass plant response rating [5, 18]
60: Plant response rating, Pigweed [1, 15] | Ryegrass, Italian plant response rating [2, 12] | Plant response rating, Velvetleaf [4, 16] | Plant response rating, Foxtail, Giant [8, 20]
85: Pigweed plant response rating [1, 12] | Plant response rating, Morningglory [6, 16]
20: Velvetleaf plant response rating [4, 12] | Plant response rating, Blackgrass [5, 13] | Plant response rating, Blackgrass [5, 14] | Plant response rating, Blackgrass [5, 16]
30: Plant response rating, Morningglory [6, 15]
95: Plant response rating, Ryegrass, Italian [2, 17] | Ryegrass, Italian plant response rating [2, 18]
100: Plant response rating, Pigweed [1, 16] | Plant response rating, Pigweed [1, 17] | Pigweed plant response rating [1, 18] | Morningglory plant response rating [6, 12] | Plant response rating, Morningglory [6, 13] | Plant response rating, Morningglory [6, 14] | Plant response rating, Morningglory [6, 17] | Morningglory plant response rating [6, 18] | Morningglory plant response rating [6, 19] | Plant response rating, Pigweed [9, 20] | Pigweed plant response rating [9, 21] | Pigweed plant response rating [9, 22] | Plant response rating, Pigweed [9, 23] | Ragweed plant response rating [10, 21] | Plant response rating, Kochia [11, 20] | Kochia plant response rating [11, 21] | Plant response rating, Kochia [11, 23]
90: Plant response rating, Pigweed [1, 13] | Plant response rating, Ryegrass, Italian [2, 13] | Plant response rating, Ryegrass, Italian [2, 14] | Plant response rating, Ryegrass, Italian [2, 15] | Plant response rating, Ryegrass, Italian [2, 16] | Foxtail, Giant plant response rating [8, 21] | Plant response rating, Foxtail, Giant [8, 23] | Plant response rating, Ragweed [10, 20] | Ragweed plant response rating [10, 22] | Plant response rating, Ragweed [10, 23]
35: Corn plant response rating [3, 18]
80: Plant response rating, Velvetleaf [4, 13] | Plant response rating, Velvetleaf [4, 14]
75: Pigweed plant response rating [1, 19] | Plant response rating, Velvetleaf [4, 17]
40: Plant response rating, Blackgrass [5, 17]
